The values that follow are results of earlier work, collected in patent US20030206884A1, “Embalming fluid” (AARD-BALM LIMITED, priority 2000, published 2003).

The test system of this data set is eyes, nose and throat.

For the compound `C=O` [formaldehyde], the “airborne concentration causing irritation of the eyes, nose and throat” value is recorded as “above 0.1 ppm”; the “airborne concentration that is a danger to life and health” value is reported as 100 ppm.
